Assays:
[1] = tested on: MV4-11; assay: Induction of apoptosis in human MV4-11 cells assessed as early apoptotic cells at 0.1 uM measured after 48 hrs by Annexin V-FITC/PI double staining based flow cytometric analysis (reference value: 2.04 %); format: functional
[2] = molecular target: T1, Receptor-type tyrosine-protein kinase FLT3 (Homo sapiens, UniProt P36888); assay: Inhibition of FLT3 (unknown origin) preincubated with compound for 10 mins followed by substrate addition and measured after 1 hrs by ADP-Glo kinase assay
T1 sequence (P36888 whole entry): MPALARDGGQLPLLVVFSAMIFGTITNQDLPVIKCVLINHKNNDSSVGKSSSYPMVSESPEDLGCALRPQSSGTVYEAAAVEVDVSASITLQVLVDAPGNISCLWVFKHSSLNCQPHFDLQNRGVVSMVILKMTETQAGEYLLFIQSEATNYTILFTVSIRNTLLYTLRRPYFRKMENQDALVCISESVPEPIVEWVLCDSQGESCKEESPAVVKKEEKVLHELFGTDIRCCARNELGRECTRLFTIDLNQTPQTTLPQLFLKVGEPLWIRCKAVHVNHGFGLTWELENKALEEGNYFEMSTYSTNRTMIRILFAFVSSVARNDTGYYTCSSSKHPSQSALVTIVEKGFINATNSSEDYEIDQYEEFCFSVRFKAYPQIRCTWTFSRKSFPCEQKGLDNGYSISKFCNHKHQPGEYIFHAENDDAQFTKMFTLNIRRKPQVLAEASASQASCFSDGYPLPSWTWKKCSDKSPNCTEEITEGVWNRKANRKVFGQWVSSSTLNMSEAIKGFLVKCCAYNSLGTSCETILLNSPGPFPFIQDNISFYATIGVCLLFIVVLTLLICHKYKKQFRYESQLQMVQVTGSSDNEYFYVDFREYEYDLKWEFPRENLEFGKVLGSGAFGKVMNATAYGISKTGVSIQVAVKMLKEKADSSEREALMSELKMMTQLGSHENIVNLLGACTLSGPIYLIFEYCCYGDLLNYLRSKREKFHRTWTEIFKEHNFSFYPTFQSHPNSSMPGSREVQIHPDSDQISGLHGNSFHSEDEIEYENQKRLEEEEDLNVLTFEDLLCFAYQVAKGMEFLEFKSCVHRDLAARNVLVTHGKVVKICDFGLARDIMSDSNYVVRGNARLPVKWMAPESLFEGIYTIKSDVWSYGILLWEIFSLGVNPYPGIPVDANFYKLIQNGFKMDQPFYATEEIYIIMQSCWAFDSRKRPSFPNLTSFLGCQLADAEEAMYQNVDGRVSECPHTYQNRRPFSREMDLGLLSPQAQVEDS

[3] = tested on: MOLM-13; assay: Antiproliferative activity against human MOLM-13 cells harboring FLT3-ITD mutant assessed as cell growth inhibition measured after 72 hrs by CCK8 assay; settings: MOLM-13, 72 h
[4] = tested on: MV4-11; assay: Induction of cell cycle arrest in human MV4-11 cells assessed as accumulation at G0/G1 phase at 0.1 uM measured after 24 hrs by flow cytometry (reference value: 64.29 %); format: functional
[5] = tested on: MV4-11; assay: Induction of apoptosis in human MV4-11 cells assessed as late apoptotic cells at 0.5 uM measured after 48 hrs by Annexin V-FITC/PI double staining based flow cytometric analysis (reference value: 12.03 %); format: functional
[6] = molecular target: Serine/threonine-protein kinase AKT (Homo sapiens) (UniProt P31751+Q9Y243+P31749); assay: Inhibition of AKT phosphorylation in human MV4-11 cells incubated for 12 hrs by Western blot analysis; format: cell-based; settings: dose 0.1-2.5 µM, DDE = dose-dependent effect
Serine/threonine-protein kinase AKT (Homo sapiens), sequence (P31749 whole entry, looked up): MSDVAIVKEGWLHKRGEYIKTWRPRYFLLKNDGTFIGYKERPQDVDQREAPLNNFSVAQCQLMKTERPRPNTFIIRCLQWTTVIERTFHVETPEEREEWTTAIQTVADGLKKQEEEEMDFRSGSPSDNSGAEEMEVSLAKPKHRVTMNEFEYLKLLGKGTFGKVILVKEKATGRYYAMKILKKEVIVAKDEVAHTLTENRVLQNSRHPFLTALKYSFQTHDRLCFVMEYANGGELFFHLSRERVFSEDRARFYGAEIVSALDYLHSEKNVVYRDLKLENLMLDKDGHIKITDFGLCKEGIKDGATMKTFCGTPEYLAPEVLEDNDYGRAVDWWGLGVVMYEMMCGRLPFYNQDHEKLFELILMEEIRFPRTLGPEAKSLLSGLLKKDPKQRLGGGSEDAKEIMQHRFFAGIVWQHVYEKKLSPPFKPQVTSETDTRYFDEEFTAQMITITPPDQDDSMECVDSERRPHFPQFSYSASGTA
Serine/threonine-protein kinase AKT (Homo sapiens), sequence (P31751 whole entry, looked up): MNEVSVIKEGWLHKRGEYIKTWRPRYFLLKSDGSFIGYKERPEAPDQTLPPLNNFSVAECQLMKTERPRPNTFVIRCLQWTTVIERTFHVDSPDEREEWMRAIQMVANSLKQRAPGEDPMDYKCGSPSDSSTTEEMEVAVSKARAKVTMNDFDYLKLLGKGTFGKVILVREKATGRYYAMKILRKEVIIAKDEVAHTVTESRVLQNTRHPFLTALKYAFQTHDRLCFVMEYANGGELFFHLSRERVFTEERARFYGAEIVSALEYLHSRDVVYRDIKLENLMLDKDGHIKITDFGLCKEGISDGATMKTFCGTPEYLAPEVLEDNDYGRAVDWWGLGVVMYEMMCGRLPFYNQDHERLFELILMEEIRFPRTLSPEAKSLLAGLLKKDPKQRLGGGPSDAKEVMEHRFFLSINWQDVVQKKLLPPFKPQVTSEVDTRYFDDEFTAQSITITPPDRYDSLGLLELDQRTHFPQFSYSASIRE
Serine/threonine-protein kinase AKT (Homo sapiens), sequence (Q9Y243 whole entry, looked up): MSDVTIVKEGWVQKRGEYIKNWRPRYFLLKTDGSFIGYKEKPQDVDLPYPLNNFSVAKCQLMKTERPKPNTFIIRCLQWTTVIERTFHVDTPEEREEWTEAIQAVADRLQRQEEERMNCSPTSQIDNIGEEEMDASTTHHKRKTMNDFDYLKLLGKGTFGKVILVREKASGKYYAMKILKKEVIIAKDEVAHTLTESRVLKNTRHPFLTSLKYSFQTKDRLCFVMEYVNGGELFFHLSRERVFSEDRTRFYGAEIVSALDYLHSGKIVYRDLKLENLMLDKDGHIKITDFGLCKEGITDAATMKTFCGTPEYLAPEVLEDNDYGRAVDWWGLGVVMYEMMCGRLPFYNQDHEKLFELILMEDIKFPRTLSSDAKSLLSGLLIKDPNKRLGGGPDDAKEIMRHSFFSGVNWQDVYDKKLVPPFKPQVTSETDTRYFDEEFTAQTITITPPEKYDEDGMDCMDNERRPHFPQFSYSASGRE

[7] = tested on: MV4-11; assay: Induction of cell cycle arrest in human MV4-11 cells assessed as accumulation at G0/G1 phase at 0.5 uM measured after 24 hrs by flow cytometry (reference value: 64.29 %); format: functional
[8] = tested on: MV4-11; assay: Induction of apoptosis in human MV4-11 cells assessed as viable cells at 2.5 uM measured after 48 hrs by Annexin V-FITC/PI double staining based flow cytometric analysis (reference value: 80.26 %); format: functional; settings: read-out: Activity
[9] = tested on: MV4-11; assay: Antiproliferative activity against human MV4-11 cells harboring FLT3-ITD mutant assessed as cell growth inhibition measured after 72 hrs by CCK8 assay; settings: MV4-11, 72 h
[10] = tested on: HepG2; assay: Antiproliferative activity human HepG2 cells assessed as cell growth inhibition measured after 72 hrs by CCK8 assay; settings: HepG2, 72 h
[11] = tested on: MV4-11; assay: Induction of apoptosis in human MV4-11 cells assessed as early apoptotic cells at 0.5 uM measured after 48 hrs by Annexin V-FITC/PI double staining based flow cytometric analysis (reference value: 2.04 %); format: functional
[12] = tested on: MV4-11; assay: Induction of apoptosis in human MV4-11 cells assessed as late apoptotic cells at 0.1 uM measured after 48 hrs by Annexin V-FITC/PI double staining based flow cytometric analysis (reference value: 12.03 %); format: functional
[13] = molecular target: T2, Signal transducer and activator of transcription 5A (Homo sapiens) (UniProt P42229); assay: Inhibition of STAT5 phosphorylation in human MV4-11 cells incubated for 12 hrs by Western blot analysis; format: cell-based; settings: dose 0.1-2.5 µM, DDE = dose-dependent effect
T2 sequence (whole entry): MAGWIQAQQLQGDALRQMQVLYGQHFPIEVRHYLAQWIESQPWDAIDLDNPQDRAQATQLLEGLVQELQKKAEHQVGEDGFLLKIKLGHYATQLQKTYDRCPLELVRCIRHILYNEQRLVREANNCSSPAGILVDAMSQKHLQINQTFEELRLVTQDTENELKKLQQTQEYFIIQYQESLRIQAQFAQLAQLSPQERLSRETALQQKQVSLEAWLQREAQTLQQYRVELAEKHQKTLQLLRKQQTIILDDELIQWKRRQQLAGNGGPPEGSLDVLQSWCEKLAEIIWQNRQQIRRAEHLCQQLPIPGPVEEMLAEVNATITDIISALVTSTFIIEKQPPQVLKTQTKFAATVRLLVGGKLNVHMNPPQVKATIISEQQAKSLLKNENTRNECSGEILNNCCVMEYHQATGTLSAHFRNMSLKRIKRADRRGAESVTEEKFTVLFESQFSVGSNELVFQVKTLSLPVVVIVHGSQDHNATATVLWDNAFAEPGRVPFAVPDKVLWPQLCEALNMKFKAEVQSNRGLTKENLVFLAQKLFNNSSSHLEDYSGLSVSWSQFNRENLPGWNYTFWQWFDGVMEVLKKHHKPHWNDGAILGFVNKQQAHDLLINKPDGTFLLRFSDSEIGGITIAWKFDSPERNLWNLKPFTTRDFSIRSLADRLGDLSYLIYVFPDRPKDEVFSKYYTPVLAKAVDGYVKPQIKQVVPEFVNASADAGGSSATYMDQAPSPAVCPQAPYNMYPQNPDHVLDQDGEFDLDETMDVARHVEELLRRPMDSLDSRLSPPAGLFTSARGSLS

[14] = tested on: MV4-11; assay: Induction of apoptosis in human MV4-11 cells assessed as early apoptotic cells at 2.5 uM measured after 48 hrs by Annexin V-FITC/PI double staining based flow cytometric analysis (reference value: 2.04 %); format: functional
[15] = tested on: MV4-11; assay: Induction of apoptosis in human MV4-11 cells assessed as necrotic cells at 0.1 uM measured after 48 hrs by Annexin V-FITC/PI double staining based flow cytometric analysis (reference value: 5.67 %); format: functional

Work on `C=CC(=O)Nc1ccc(NC(=O)Nc2ccc(-c3cc(C)nc4noc(N)c34)cc2)cc1` yielded an Activity [1] of 1.83%, an IC50 [2] of 256 nM and an IC50 [3] of 507 nM. The Activity [4] was 67.6%, the Activity [5] was 14.58% and the inhibition [6] was “Dde”. The Activity [7] was 71.37%, the viability at 2.5 µM [8] was 53.9% and the IC50 [9] was 325 nM. For the same compound, the IC50 [10] was > 10 µM, the Activity [11] was 2.43% and the Activity [12] was 11.88%. For the same compound, the inhibition [13] was “Dde”, the Activity [14] was 1.5% and the Activity [15] was 4.51%.

Reference: ChEMBL document CHEMBL5113503, “Synthesis and biological evaluation of 4-(4-aminophenyl)-6-methylisoxazolo[3,4-b] pyridin-3-amine covalent inhibitors as potential agents for the treatment of acute myeloid leukemia” (Bioorg Med Chem, 2022)
